ChEMBL document CHEMBL1201862, “PubChem BioAssay data set” (2004)
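The compound was tested at five concentrations on cells cultured in 96-well plates, with a 48-hour exposure period. GI50 = concentration required for 50% inhibition of growth.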 Activity calls are given as the source filed them. Cut-off read from the data, not from the text of the source: active = GI50 up to about 1.1 µM and inactive = higher. *1 amine or outer side, *2 acyl side, *3 side chain or, on linkers, in order; H or OH if unused. Where a SMILES comes first, the peptide text is derived from it. [ ]: non-standard residue; d: D form. The star is where a group is joined. ξ: configuration not given here. NMeY = CN[C@@H](Cc1ccc(O)cc1)C(=O)O; Ethylenediamine = C(CN[*:2])N[*:1]; ξNMeL = CNC(CC(C)C)C(=O)O; Cbz = O=C(OCc1ccccc1)*; Lac = C[C@H](O)C(=O)O; ξA = CC(N)C(=O)O

What was measured:
Assay in all cases: NCI tumour cell line growth inhibition, 48 h
[1] = tested on: NCI-H460
[2] = tested on: A549
[3] = tested on: ACHN
[4] = tested on: OVCAR-8
[5] = tested on: BT-549
[6] = tested on: MOLT-4
[7] = tested on: MCF7
[8] = tested on: SNB-75
[9] = tested on: A498
[10] = tested on: U-251
[11] = tested on: NCI-H23
[12] = tested on: RXF 393
[13] = tested on: HT-29
[14] = tested on: DU-145
[15] = tested on: UO-31
[16] = tested on: UACC-257
[17] = tested on: NCI-H226
[18] = tested on: HL-60
[19] = tested on: 786-0
[20] = tested on: TK-10
[21] = tested on: SN12C
[22] = tested on: UACC-62
[23] = tested on: SF-295
[24] = tested on: MDA-MB-435
[25] = tested on: SR
[26] = tested on: IGROV-1
[27] = tested on: HOP-92
[28] = tested on: Malme-3M
[29] = tested on: HCT-15
[30] = tested on: RPMI-8226
[31] = tested on: Hs-578T
[32] = tested on: K562
[33] = tested on: EKVX
[34] = tested on: CAKI-1
[35] = tested on: SNB-19
[36] = tested on: OVCAR-5
[37] = tested on: SK-MEL-2
[38] = tested on: KM12
[39] = tested on: MDA-MB-231
[40] = tested on: SF-539
[41] = tested on: HOP-62
[42] = tested on: OVCAR-4
[43] = tested on: OVCAR-3
[44] = tested on: NCI/ADR-RES
[45] = tested on: HCC 2998
[46] = tested on: PC-3
[47] = tested on: SK-OV-3
[48] = tested on: SK-MEL-5
[49] = tested on: SW-620
[50] = tested on: COLO 205
[51] = tested on: HCT-116
[52] = tested on: CCRF-CEM
[53] = tested on: SF-268
[54] = tested on: SK-MEL-28
[55] = tested on: M14
[56] = tested on: NCI-H522
[57] = tested on: T47D
[58] = tested on: LOX IMVI
[59] = tested on: MDA-N

Structure (SMILES): Fc1ccc(N2C(=S)SC(=N\c3ccccc3)/C2=N/c2ccccc2)cc1
- GI50 [1]: > 100 µM (inactive)
- GI50 [2]: > 79.8 µM (inactive)
- GI50 [3]: > 74.5 µM (inactive)
- GI50 [4]: > 100 µM (inactive)
- GI50 [5]: > 100 µM (inactive)
- GI50 [6]: 5.86 µM (inactive)
- GI50 [7]: > 73.8 µM (inactive)
- GI50 [8]: > 100 µM (inactive)
- GI50 [9]: > 100 µM (inactive)
- GI50 [10]: > 87.7 µM (inactive)
- GI50 [11]: > 71.9 µM (inactive)
- GI50 [12]: > 100 µM (inactive)
- GI50 [13]: 27.1 µM (inactive)
- GI50 [14]: > 100 µM (inactive)
- GI50 [15]: > 86.1 µM (inactive)
- GI50 [16]: > 67.1 µM (inactive)
- GI50 [17]: > 100 µM (inactive)
- GI50 [18]: 53.8 µM (inactive)
- GI50 [19]: > 100 µM (inactive)
- GI50 [20]: > 100 µM (inactive)
- GI50 [21]: > 100 µM (inactive)
- GI50 [22]: > 92 µM (inactive)
- GI50 [23]: > 100 µM (inactive)
- GI50 [24]: > 100 µM (inactive)
- GI50 [25]: 25.1 µM (inactive)
- GI50 [26]: > 43.8 µM (inactive)
- GI50 [27]: > 42.8 µM (inactive)
- GI50 [28]: > 42.9 µM (inactive)
- GI50 [29]: > 85.1 µM
- GI50 [30]: 32.8 µM (inactive)
- GI50 [31]: 81.3 µM (inactive)
- GI50 [32]: 14.9 µM (inactive)
- GI50 [33]: 97.5 µM (inactive)
- GI50 [34]: > 100 µM (inactive)
- GI50 [35]: > 100 µM (inactive)
- GI50 [36]: > 85.3 µM (inactive)
- GI50 [37]: > 40.5 µM (inactive)
- GI50 [38]: 73.1 µM (inactive)
- GI50 [39]: > 100 µM (inactive)
- GI50 [40]: > 100 µM (inactive)
- GI50 [41]: > 75 µM (inactive)
- GI50 [42]: > 57.7 µM (inactive)
- GI50 [43]: 41.6 µM (inactive)
- GI50 [44]: > 92.7 µM (inactive)
- GI50 [45]: > 100 µM (inactive)
- GI50 [46]: > 16.7 µM (inactive)
- GI50 [47]: > 100 µM (inactive)
- GI50 [48]: 41.3 µM (inactive)
- GI50 [49]: > 100 µM (inactive)
- GI50 [50]: > 100 µM (inactive)
- GI50 [51]: 17.5 µM (inactive)
- GI50 [52]: 25.9 µM (inactive)
- GI50 [53]: > 100 µM (inactive)
- GI50 [54]: > 100 µM (inactive)
- GI50 [55]: > 100 µM (inactive)
- GI50 [56]: > 100 µM (inactive)
- GI50 [57]: 25.5 µM (inactive)
- GI50 [58]: > 100 µM (inactive)
- GI50 [59]: > 100 µM (inactive)

Structure (SMILES): OCCN(CCO)CCn1cnc2c(NCc3ccccc3)ncnc21
- GI50 [1]: > 100 µM (inactive)
- GI50 [2]: > 100 µM (inactive)
- GI50 [3]: > 100 µM (inactive)
- GI50 [4]: > 100 µM (inactive)
- GI50 [5]: > 100 µM (inactive)
- GI50 [6]: > 100 µM (inactive)
- GI50 [7]: > 100 µM (inactive)
- GI50 [8]: > 100 µM (inactive)
- GI50 [9]: > 100 µM (inactive)
- GI50 [10]: > 100 µM (inactive)
- GI50 [11]: > 100 µM (inactive)
- GI50 [12]: > 100 µM (inactive)
- GI50 [13]: > 100 µM (inactive)
- GI50 [14]: > 100 µM (inactive)
- GI50 [15]: > 100 µM (inactive)
- GI50 [16]: > 100 µM (inactive)
- GI50 [17]: > 100 µM (inactive)
- GI50 [18]: > 100 µM (inactive)
- GI50 [19]: > 100 µM (inactive)
- GI50 [20]: > 100 µM (inactive)
- GI50 [21]: > 100 µM (inactive)
- GI50 [22]: > 100 µM (inactive)
- GI50 [23]: > 100 µM (inactive)
- GI50 [24]: > 100 µM (inactive)
- GI50 [25]: > 100 µM (inactive)
- GI50 [26]: > 100 µM (inactive)
- GI50 [27]: > 100 µM (inactive)
- GI50 [28]: > 100 µM (inactive)
- GI50 [29]: > 100 µM
- GI50 [30]: > 100 µM (inactive)
- GI50 [31]: > 100 µM (inactive)
- GI50 [32]: > 100 µM (inactive)
- GI50 [33]: > 100 µM (inactive)
- GI50 [34]: > 100 µM (inactive)
- GI50 [35]: > 100 µM (inactive)
- GI50 [36]: > 100 µM (inactive)
- GI50 [37]: > 100 µM (inactive)
- GI50 [38]: > 100 µM (inactive)
- GI50 [39]: > 100 µM (inactive)
- GI50 [40]: > 100 µM (inactive)
- GI50 [41]: > 100 µM (inactive)
- GI50 [42]: > 100 µM (inactive)
- GI50 [43]: > 100 µM (inactive)
- GI50 [44]: > 100 µM (inactive)
- GI50 [45]: > 100 µM (inactive)
- GI50 [46]: > 100 µM (inactive)
- GI50 [47]: > 100 µM (inactive)
- GI50 [48]: > 100 µM (inactive)
- GI50 [49]: > 100 µM (inactive)
- GI50 [50]: > 100 µM (inactive)
- GI50 [51]: > 100 µM (inactive)
- GI50 [52]: > 100 µM (inactive)
- GI50 [53]: > 100 µM (inactive)
- GI50 [54]: > 100 µM (inactive)
- GI50 [55]: > 100 µM (inactive)
- GI50 [56]: > 100 µM (inactive)
- GI50 [57]: > 100 µM (inactive)
- GI50 [58]: > 100 µM (inactive)
- GI50 [59]: > 100 µM (inactive)

Structure (SMILES): COc1ccc(C[C@@H](C(=O)NCCNC(=O)C(CC(C)C)N(C)C(=O)[C@@H]2CCCN2C(=O)[C@H](C)O)N(C)C(=O)[C@@H]2CCCN2C(=O)[C@H](CC(C)C)NC(=O)C(C)NC(=O)OCc2ccccc2)cc1 (some centres not stated) (Cbz-[ξA]LP[NMeY](Me)-{Ethylenediamine-ξNMeL-Pro-Lac})
- GI50 [1]: > 100 µM (inactive)
- GI50 [2]: > 100 µM (inactive)
- GI50 [3]: > 100 µM (inactive)
- GI50 [4]: > 100 µM (inactive)
- GI50 [5]: > 100 µM (inactive)
- GI50 [6]: 29 µM (inactive)
- GI50 [7]: 43.9 µM (inactive)
- GI50 [8]: 89.5 µM (inactive)
- GI50 [9]: > 100 µM (inactive)
- GI50 [10]: > 100 µM (inactive)
- GI50 [11]: > 100 µM (inactive)
- GI50 [12]: 97.7 µM (inactive)
- GI50 [13]: 72.3 µM (inactive)
- GI50 [14]: > 100 µM (inactive)
- GI50 [15]: > 100 µM (inactive)
- GI50 [16]: 46.1 µM (inactive)
- GI50 [17]: > 100 µM (inactive)
- GI50 [18]: 38.4 µM (inactive)
- GI50 [19]: > 100 µM (inactive)
- GI50 [20]: > 100 µM (inactive)
- GI50 [21]: > 100 µM (inactive)
- GI50 [22]: 96.2 µM (inactive)
- GI50 [23]: > 100 µM (inactive)
- GI50 [24]: 54.2 µM (inactive)
- GI50 [25]: 54.3 µM (inactive)
- GI50 [26]: > 100 µM (inactive)
- GI50 [27]: 68.9 µM (inactive)
- GI50 [28]: > 100 µM (inactive)
- GI50 [29]: 82 µM
- GI50 [30]: 33.9 µM (inactive)
- GI50 [31]: 12.9 µM (inactive)
- GI50 [32]: 40.6 µM (inactive)
- GI50 [33]: > 100 µM (inactive)
- GI50 [34]: > 100 µM (inactive)
- GI50 [35]: > 100 µM (inactive)
- GI50 [36]: > 100 µM (inactive)
- GI50 [37]: > 100 µM (inactive)
- GI50 [38]: > 100 µM (inactive)
- GI50 [39]: 91.4 µM (inactive)
- GI50 [40]: > 100 µM (inactive)
- GI50 [41]: > 100 µM (inactive)
- GI50 [42]: > 100 µM (inactive)
- GI50 [43]: > 100 µM (inactive)
- GI50 [44]: > 100 µM (inactive)
- GI50 [45]: > 100 µM (inactive)
- GI50 [46]: > 100 µM (inactive)
- GI50 [47]: > 100 µM (inactive)
- GI50 [48]: 33.5 µM (inactive)
- GI50 [49]: > 100 µM (inactive)
- GI50 [50]: 77.6 µM (inactive)
- GI50 [51]: > 100 µM (inactive)
- GI50 [52]: 34.6 µM (inactive)
- GI50 [53]: > 100 µM (inactive)
- GI50 [54]: > 100 µM (inactive)
- GI50 [55]: > 100 µM (inactive)
- GI50 [56]: > 100 µM (inactive)
- GI50 [57]: 72.6 µM (inactive)
- GI50 [58]: 37 µM (inactive)
- GI50 [59]: 66.8 µM (inactive)
